The values that follow come from US20250204553A1, “FEED AND METHODS FOR CONTROLLING HEARTWORM INFECTIONS IN A MAMMAL” (In the Bowl Animal Health, Inc., priority 2022, published 2025).

The conditions of data set [1]: in vivo; cited from earlier work.
Data set [2] concerns Dirofilaria immitis. The data set is described as follows: Efficacy of moxidectin administered per os to dogs for treatment and control of Dirofilaria immitis. Type of data set: in vivo. The conditions noted are these: all 12 dogs; daily oral 0.8 μg/kg and 1.6 μg/kg up to Day 179; inoculated with 50 L3 D. immitis on Day -28 or Day 0; counted on or after Day 180; expected result.

Data set [3] relates to Dirofilaria immitis. The data set is described as follows: Efficacy of monepantel administered per os to dogs for treatment and control of Dirofilaria immitis. The conditions noted are these: all 12 dogs; daily oral 0.083 mg/kg and 0.83 mg/kg up to Day 179; inoculated with 50 L3 D. immitis on Day -28 or Day 0; counted on or after Day 180; expected result. Type of data set: in vivo.

With `CO/N=C1\C[C@]2(C[C@@H]3C[C@@H](C/C=C(\C)C[C@@H](C)/C=C/C=C4\CO[C@@H]5[C@H](O)C(C)=C[C@@H](C(=O)O3)[C@]45O)O2)O[C@H](/C(C)=C/C(C)C)[C@H]1C` [moxidectin], the terminal half-life result in data set [1] is “approximately 13.9 days”. The compound further yielded a heartworms recovered with Dirofilaria immitis [2] of 0.

Consider `C[C@](C#N)(COc1cc(C#N)ccc1C(F)(F)F)NC(=O)c1ccc(SC(F)(F)F)cc1` [monepantel, N-[(2S)-2-cyano-1-[5-cyano-2-(trifluoromethyl)phenoxy]propan-2-yl]-4-(trifluoromethylsulfanyl)benzamide], for which the heartworms recovered with Dirofilaria immitis [3] is 0. For the compound ivermectin, in data set [1], the terminal half-life is 43.2 h.
